Laboratory results: PMC10520499, “Next step in the development of mesoprogestins: the preclinical profile of EC313” (Frontiers in Endocrinology, 2023)
Several values for one entry are separate records, joined by “and”; a condition that tells them apart may be missing. Equal entries are not always repeated.

Target: T1, human mineralocorticoid receptor (hMR) (Homo sapiens, UniProt P08235)
T1 construct: host or cells: U2OS, transient co-transfection
T1 sequence (P08235 1-984): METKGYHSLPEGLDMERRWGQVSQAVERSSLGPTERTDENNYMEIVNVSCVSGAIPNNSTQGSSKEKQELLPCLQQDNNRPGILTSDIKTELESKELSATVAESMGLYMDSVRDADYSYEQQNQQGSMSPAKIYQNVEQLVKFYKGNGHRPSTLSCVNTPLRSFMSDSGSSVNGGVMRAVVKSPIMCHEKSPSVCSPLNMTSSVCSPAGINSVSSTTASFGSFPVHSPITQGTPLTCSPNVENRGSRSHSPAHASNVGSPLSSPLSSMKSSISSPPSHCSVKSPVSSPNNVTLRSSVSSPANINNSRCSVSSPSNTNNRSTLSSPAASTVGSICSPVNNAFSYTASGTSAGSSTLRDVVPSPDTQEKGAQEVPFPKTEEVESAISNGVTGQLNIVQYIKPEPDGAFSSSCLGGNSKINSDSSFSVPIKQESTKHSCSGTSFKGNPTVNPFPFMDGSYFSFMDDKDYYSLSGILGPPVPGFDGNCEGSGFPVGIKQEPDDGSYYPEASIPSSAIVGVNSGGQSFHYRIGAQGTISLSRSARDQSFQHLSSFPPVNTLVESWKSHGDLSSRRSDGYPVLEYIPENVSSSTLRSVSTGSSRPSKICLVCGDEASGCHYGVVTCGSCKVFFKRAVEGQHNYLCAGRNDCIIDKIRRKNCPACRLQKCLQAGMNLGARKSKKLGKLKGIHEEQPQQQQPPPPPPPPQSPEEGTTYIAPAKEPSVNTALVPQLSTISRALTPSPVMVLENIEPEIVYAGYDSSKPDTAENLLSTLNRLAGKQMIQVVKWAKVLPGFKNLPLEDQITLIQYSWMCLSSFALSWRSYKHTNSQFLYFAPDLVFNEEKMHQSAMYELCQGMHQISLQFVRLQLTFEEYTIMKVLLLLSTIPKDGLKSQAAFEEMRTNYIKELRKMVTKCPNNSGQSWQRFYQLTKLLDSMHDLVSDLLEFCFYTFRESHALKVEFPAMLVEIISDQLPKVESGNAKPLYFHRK
Assay: MR transactivation (U2OS, MMTV-LUC)
Type: cell-based
Excerpt: The U2OS cell line which expresses the mineralocorticoid receptor was used to study the gene expression on the transcriptional level under the influence of EC313 and the reference compound. The cells were transfected with a vector encoding a human full-length mineralocorticoid receptor (hMR) linked to the reporter vector MMTV/LUC. Cells were transiently and stably transfected in order to reach high protein expression. Next, co-transfected U2OS cells carrying mineralocorticoid receptors and reporter vector MMTV/LUC were stimulated by the tested compounds (Aldosterone or EC313) or the mixture: aldosterone and an appropriate range of concentrations of EC313. The agonist and antagonist properties of EC313 toward tested receptor MR were analyzed using luminescence detection.
In order to develop the transfection assay, plasmid-included vectors coding sequences for the receptor as well as the reporter gene were generated and isolated, respectively. Vector pcDNA3.1 coding sequence for full length of human MR (MR cDNA ORF clone in pcDNA3.1+/C-(K)-DYK) was used as an expression vector for MR and was linked to the reporter system (pGL4.36-MMTV/LUC) building with vector pGL4.36 coding the mineralocorticoid responsive element (MMTV) and firefly luciferase [luc2P/Hygro].
Transfection was performed on a 96-well plate (15.5x10^3 cells per well) in culture medium (RPMI phenol red, 10% FBS, L-Glu) w/o antibiotics according to the manufacturer’s specification. Prior to transfection, plated cells were approximately 70%–80% confluent. 24h later, cells were treated with test compounds overnight.
The properties of EC313 to induce/inhibit tested receptor was studied in agonistic and antagonistic approaches. Co-transfected U2OS cells were stimulated with either aldosterone (0.009 nM - 1200 nM) or EC313 (0.009 nM - 1200 nM) in order to determine and compare the agonist potential of test compounds. The antagonistic activity was checked in competitive interaction between EC313 (0.009 nM - 1200 nM) and 0.4 nM of Aldosterone.

C[C@]12C[C@H](c3ccc(-c4ccoc4)cc3)C3=C4CCC(=O)C=C4CC[C@H]3[C@@H]1CC[C@]21OCCC1=C(F)F [EC313]
transactivation of hMR (agonism): does not transactivate hMR
fold lower potency than Spironolactone (MR antagonism): approximately 80 fold
IC50 (MR, 0.4 nM Aldosterone, read-out: IC50, antagonism of Aldosterone-induced transactivation): 2 µM and ~2 µM
